Key:
[1] = Cell viability assay (MTT), MIAPaCa-2; conditions: human, MIAPaCa-2 pancreatic cancer cells
Method: (§1) After synthesizing the functionalized aminobenzoboroxoles, these molecules were evaluated for their general cytotoxicity against breast cancer cell lines (MDA-MB-231) and pancreatic cancer cell lines (MIAPaCa-2).
(§2) Human pancreatic cancer MIAPaCa-2 cells were purchased from ATCC and were maintained in D-MEM supplemented with 10% FBS, 2.5% horse serum, and 1% Penicillin Streptomycin in a humidified atmosphere of 5% CO2 at 37° C. Human breast cancer MDA-MB-231 cells were purchased from ATCC and were maintained in D-MEM supplemented with 10% FBS and 1% Penicillin Streptomycin in a humidified atmosphere of 5% CO2 at 37° C. […] DMSO was added as a negative control. To determine the cell viability, MTT (3-(4,5-dimethylthiazolyl-2)-2,5-diphenyltetrazolium bromide) was dissolved in PBS solution (5 mg/mL) and 10 μL was added to each well and incubated. After 4 hours, 100 μL of SDS (sodium dodecyl sulfate) solution (1 g in 10 mL of 0.01 N HCl) was added to solubilize formazan precipitate and incubated for an additional 4 hours. The absorbance of each well was then measured using a microplate reader at 570 nm. The absorbance of control wells was defined as 100% viability and all of the tested compounds were expressed as percentage relative to the control.

[2] = Cell viability assay (MTT), MDA-MB-231; conditions: human, MDA-MB-231 breast cancer cells
Method: as §1, §2

[3] = system: Human pancreatic cancer MIAPaCa-2 cells; experiment: Cell viability assay (MTT), MIAPaCa-2; conditions: for activity against MIAPaCa-2 cell lines: 12.5 μM concentration; for IC50: Homo sapiens, MIA PaCa-2
Method: as §1, §2

[4] = system: Human breast cancer MDA-MB-231 cells; experiment: Cell viability assay (MTT), MDA-MB-231; conditions: Homo sapiens, MDA-MB-231
Method: as §1, §2

melting point	IC50 [3]	IC50 [4]	SMILES	viability at 72 h, 12.5 µM [1]	viability at 72 h, 50 µM [1]	viability at 72 h, 12.5 µM [2]	viability at 72 h, 50 µM [2]	activity against MIAPaCa-2 cell lines [3]
123 to 125 °C	–	–	OB1OCc2ccc(NCc3ccccc3)cc21 [Compound 2]	76.6%	34.5%	73.7%	80.2%	–
135 to 137 °C	–	–	OB1OCc2ccc(NCc3ccc(F)cc3)cc21 [Compound 3]	87.2%	73.6%	84%	91.7%	–
136 to 138 °C	–	–	OB1OCc2ccc(NCc3ccc(F)cc3F)cc21 [Compound 4]	90.9%	63.9%	80.2%	90%	–
106 to 108 °C	–	–	OB1OCc2ccc(NCc3ccc(Cl)cc3Cl)cc21 [Compound 5]	86.4%	65.8%	75.2%	75.7%	–
128 to 130 °C	–	–	OB1OCc2ccc(NCc3ccc(Cl)c(Cl)c3)cc21 [Compound 6]	95.3%	62.6%	69.2%	68.7%	–
148 to 150 °C	–	–	Cc1ccc(CNc2ccc3c(c2)B(O)OC3)cc1 [Compound 9]	57.2%	45.9%	84.1%	82.8%	–
122 to 124 °C	–	–	COc1ccc(CNc2ccc3c(c2)B(O)OC3)cc1 [Compound 10, 6-N-(p-methoxybenzyl)aminobenzoboroxole]	51.8%	37.9%	90.2%	90%	–
136 to 138 °C	–	–	OB1OCc2ccc(NCc3ccc4c(c3)OCO4)cc21 [Compound 14]	88.9%	69%	88.5%	102%	–
209 to 211 °C	8.3 µM	11.5 µM	OB1OCc2ccc(NCc3cc4ccccc4nc3Cl)cc21 [Compound 16]	28.2%	28.6%	44.3%	44.8%	showed activity
121 to 123 °C	–	–	O=NN(Cc1ccc(Cl)cc1Cl)c1ccc2c(c1)B(O)OC2 [Compound 21]	95.7%	69.5%	134%	106%	–

The remaining lines, values behind:

SMILES	melting point	IC50 [3]	IC50 [4]	viability at 72 h, 12.5 µM [1]	viability at 72 h, 50 µM [1]	viability at 72 h, 12.5 µM [2]	viability at 72 h, 50 µM [2]	activity against MIAPaCa-2 cell lines [3]
O=C(O)c1ccc(CNc2ccc3c(c2)B(O)OC3)cc1 [Compound 7]	221 to 223 °C	–	–	71.3%	80.6%	100%	124%	–
N#Cc1ccc(CNc2ccc3c(c2)B(O)OC3)cc1 [Compound 8]	141 to 143 °C	–	–	80.8%	47%	77.7%	109%	–
CN(C)c1ccc(CNc2ccc3c(c2)B(O)OC3)cc1 [Compound 11]	122 to 124 °C	–	–	72.1%	78.4%	97.6%	71.1%	–
CCCCN(CCCC)c1ccc(CNc2ccc3c(c2)B(O)OC3)cc1 [Compound 12]	94 to 96 °C	–	–	89.1%	58.2%	106%	103%	–
OB1OCc2ccc(NCc3ccc(N4CCCCC4)cc3)cc21 [Compound 13]	65 to 67 °C	–	–	92%	49.5%	93.9%	90.7%	–
O=C(Nc1ccc([N+](=O)[O-])c(C(F)(F)F)c1)c1ccc(CNc2ccc3c(c2)B(O)OC3)cc1 [Compound 15]	117 to 119 °C	–	–	–	–	–	–	–
O=NN(Cc1ccccc1)c1ccc2c(c1)B(O)OC2 [Compound 17]	108 to 110 °C	–	–	83.5%	51.5%	121%	115%	–
COc1ccc(CN(N=O)c2ccc3c(c2)B(O)OC3)cc1 [Compound 18, 6-N-nitroso-N-(p-methoxybenzyl)amino-benzoboroxole]	109 to 111 °C	–	–	83%	61%	119%	123%	–
O=NN(Cc1ccc(F)cc1)c1ccc2c(c1)B(O)OC2 [Compound 19]	121 to 123 °C	–	–	77.7%	62.8%	128%	108%	–
O=NN(Cc1ccc(F)cc1F)c1ccc2c(c1)B(O)OC2 [Compound 20]	125 to 127 °C	–	–	70.3%	70.5%	122%	126%	–
O=NN(Cc1ccc(Cl)c(Cl)c1)c1ccc2c(c1)B(O)OC2 [Compound 22]	144 to 147 °C	–	–	84.8%	59.9%	122%	146%	–
O=C(Nc1ccccc1)N(Cc1ccccc1)c1ccc2c(c1)B(O)OC2 [Compound 23]	116 to 118 °C	–	–	49.6%	30%	116%	47%	–
COc1ccc(CN(C(=O)Nc2ccccc2)c2ccc3c(c2)B(O)OC3)cc1 [Compound 24]	104 to 106 °C	2.7 µM	11.9 µM	22.4%	17.5%	63%	53.9%	showed activity
O=C(NC1CCCCC1)N(Cc1ccccc1)c1ccc2c(c1)B(O)OC2 [Compound 25]	125 to 127 °C	–	–	64.8%	39.4%	80.9%	128%	–
COc1ccc(CN(C(=O)NC2CCCCC2)c2ccc3c(c2)B(O)OC3)cc1 [Compound 26]	156 to 158 °C	–	–	45.5%	25.1%	96.3%	60.8%	–
O=C(NCCCl)N(Cc1ccccc1)c1ccc2c(c1)B(O)OC2 [Compound 27]	138 to 140 °C	–	–	104%	61.8%	135%	101%	–
COc1ccc(CN(C(=O)NCCCl)c2ccc3c(c2)B(O)OC3)cc1 [Compound 28]	134 to 136 °C	–	–	74.9%	60.4%	95.8%	63.2%	–
